Tests used:
hCB2 receptor = target: T1, hCB2 receptor (Homo sapiens, UniProt P34972); test: [3H]CP55,940 competitive binding assay, CB2 (HEK293 cells expressing hCB2); settings: against [3H]CP55,940; HEK293 hCB2 membranes
T1 construct: expressed in transfected cells; host or cells: HEK293
Description: Compounds were tested for their CB1 and CB2 receptor using membrane preparations from rat brain or HEK293 cells expressing hCB2 receptor, respectively, and [^3H]CP55,940 as previously described 1, 36-38. Stock solutions of the compounds (10 mM in DMSO) were diluted in TME buffer (50 mM Tris-HCL, 3 mM MgCl2, 100 mM NaCl, 0.2 mM EDTA, pH 7.4) with 0.1% BSA and transferred to 96 well plates containing [^3H]CP55,940 (specific activity 128 Ci/mmol; NIDA) at a final concentration of 0.76 nM. Non-specific binding was assessed in the presence of 100 nM CP55,940. The binding reaction was initiated with the addition of the respective membrane suspension (˜50 μg membrane protein) followed by incubation at 30° C. with gentle agitation in a shaking water bath for 60 minutes. […] The filter plates were washed with ice-cold wash buffer (50 mM Tris-base, 5 mM MgCl2 with 0.5% BSA) and bound radioactivity was determined using a Packard TopCount Scintillation Counter. The results were analyzed using nonlinear regression to determine the actual IC50 and the Ki values of the ligand (Prizm by GraphPad Software, Inc.). All data were in duplicate with IC50 and Ki values determined from at least two independent experiments.
The affinity of a compound for CB1 vs. CB2 is determined by the ratio of the inhibitory constants (Ki), as determined by the competitive binding assay.

[1] = tested on: Male Sprague-Dawley (SD) rats; test: Food intake studies (experiments A, B, C), food intake and body weight; format: in vivo, rat
Description: All experimental protocols were approved by internal guidelines. Different concentrations of drugs were administered I.P. in a 1 ml kg-1 (milliliters per kilogram) volume, except M6G, which was given s.c. (subcutaneously) in a 0.1 ml kg-1 volume.
Food and water were presented in inverted glass bottles that attached to the outside of the cage. Food was available for 18 h each day starting at 16:00 h (12 h light-dark cycle; lights off 16:00 h).
Intake measurements were taken at 1.5 h, 3 h, 5 h, and 18 h after food became available.
Rats were habituated to testing and handling procedures as before. […] Food intake and body weight were monitored daily.
On the day of the experiment each rat received only a single injection, 30 min later food was made available as described in experiment 1. Food intake was measured 0.5, 1.5, 3, 5, and 18 h after administration. Food intake and body weight were monitored daily for five days after the experiment to assess the sustained effect of a single administration of each compound.

adult male ferrets = test: Emesis studies: vomiting induced by the emetic M6G; format: in vivo, ferret; settings: for mean number of vomiting episodes±SEM: 60 min observation
Description: Ferrets were lightly anaesthetized with halothane for each injection. Data were videotaped and analyzed by an observer blinded to the conditions of each treatment group. During 60 min of observation the number of vomiting (emetic) episodes were counted, and activity or sleeping time was noted. […] Each ferret acted as its own control, conditions were randomized via a counter balance design and separated by at least 14 days.

Rats = test: Food intake studies using different diets; format: in vivo, rat; settings: 2.0, 4.0, 8.0 mg/kg IP 30 min prior; high-fat, high-carbohydrate, lab chow
From the text: Animals were assigned to three different diet conditions (n=10/group). One group was assigned to a high-fat diet (HF; Diet # D12451, Research Diets, New Brunswick, N.J., 20% protein, 45% fat, 35% carbohydrate). A second group was given a high-carbohydrate diet (HC; Diet # D12450B, Research Diets, New Brunswick, N.J., 20% protein, 10% fat, 70% carbohydrate). The remaining group was fed a standard chow diet (LC, 5P00 Prolab RMH 3000, PMI Nutrition International, St. Louis, Mo.; 26% protein, 14% fat, 60% carbohydrate). Food blocks from each type of diet were nutritionally complete and similar in appearance and weight. Rats were given free access to lab chow in their home cages until the beginning of a five day habituation period. On the first day of habituation, rats were assigned to their respective dietary groups and moved into suspended wire mesh test cages containing their assigned food type. After spending 30 min in the test cage, they were returned to their home cages. After this initial habituation period, rats were given free access to lab chow in their home cages every Thursday afternoon through Monday afternoon. Each Tuesday and Wednesday, rats spent 30 min in the test cages with their assigned diets. On Thursdays, the injected animals were placed in the test cages with a pre-weighed amount of assigned food. A piece of cardboard was placed underneath the chamber to catch spillage. […]

CB1 receptor = CB1 receptor (Rattus norvegicus, UniProt P20272); test: Thermoregulation assay: hypothermia induced by the CB1 agonist CP55,940; format: in vivo; design: antagonized CB1 receptors in vivo; from tissue; host or cells: whole animal, male SD rats
CB1 receptor, sequence (P20272 whole entry): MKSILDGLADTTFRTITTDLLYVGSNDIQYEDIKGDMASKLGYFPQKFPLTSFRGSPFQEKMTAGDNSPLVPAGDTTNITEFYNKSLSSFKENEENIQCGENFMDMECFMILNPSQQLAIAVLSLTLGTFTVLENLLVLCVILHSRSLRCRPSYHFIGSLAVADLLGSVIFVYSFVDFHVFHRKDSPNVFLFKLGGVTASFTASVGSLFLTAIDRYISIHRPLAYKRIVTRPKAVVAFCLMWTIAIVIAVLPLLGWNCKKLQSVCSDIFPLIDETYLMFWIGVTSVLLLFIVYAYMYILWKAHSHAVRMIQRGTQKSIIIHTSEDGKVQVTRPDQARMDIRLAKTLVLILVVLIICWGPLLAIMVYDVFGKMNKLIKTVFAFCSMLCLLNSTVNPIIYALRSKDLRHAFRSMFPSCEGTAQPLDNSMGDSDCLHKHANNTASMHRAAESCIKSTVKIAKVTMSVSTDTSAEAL
Description: Briefly, silicone coated temperature data loggers (SubCue Inc, Calgary, Canada) were surgically implanted into the abdominal cavity of male SD (450-500 g) rats under isoflurane anesthesia (4% induction; 2-2.5% maintenance). Rats were allowed to recover for 3 days before being acclimatized to testing and handling procedures for an additional seven days. Core body temperature readings were sampled every 5 min for 300 min during the course of each experiment.

[2] = experiment B, 5 mg kg-1 daily, day 4
[3] = experiment B, 5 mg kg-1 daily, day 5

T1 sequence (P34972 whole entry): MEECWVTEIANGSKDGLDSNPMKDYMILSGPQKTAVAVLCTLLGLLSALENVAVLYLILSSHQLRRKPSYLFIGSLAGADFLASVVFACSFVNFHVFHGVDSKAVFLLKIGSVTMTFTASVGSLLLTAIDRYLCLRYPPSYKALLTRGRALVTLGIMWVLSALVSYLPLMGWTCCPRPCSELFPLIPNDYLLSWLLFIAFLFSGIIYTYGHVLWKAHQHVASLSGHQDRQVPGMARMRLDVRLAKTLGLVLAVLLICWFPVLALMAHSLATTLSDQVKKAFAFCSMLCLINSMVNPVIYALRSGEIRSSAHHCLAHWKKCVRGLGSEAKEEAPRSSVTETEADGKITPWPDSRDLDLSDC

Question: For `Cc1c(C(=O)NN2CCCCC2)nn(-c2ccc(Cl)cc2Cl)c1-c1ccc(C#CCCC#N)cc1` [Compound 3], which Ki (hCB2 receptor) is on record?
Answer: The Ki was 92 nM.

Question: And the “acute effect on food intake compared with vehicle” value ([1]; experiment A, 5 mg kg-1 I.P. single dose)?
Answer: The value was “did not significantly reduced food intake”.

Question: What about the “food intake and weight gain, differences to vehicle treated rats” value ([1]; experiment B, 1 mg kg-1 daily) of the same molecule?
Answer: The value was “non significant”.

Question: And the “food intake, difference compared with vehicle treated rats” value ([1]; experiment B, 5 mg kg-1 daily, day 3)?
Answer: The value was -23.2 g.

Question: And the “food intake, difference compared with vehicle treated rats” value [1, 2]?
Answer: Its value is -20.4 g.

Question: And the “weight gain, difference to vehicle treated rats” value [1, 2]?
Answer: Its value is -15.6 g.

Question: What about the “food intake, difference compared with vehicle treated rats” value [1, 3] of the same molecule?
Answer: Its value is -19.2 g.

Question: And the “weight gain, difference to vehicle treated rats” value [1, 3]?
Answer: Its value is -21.8 g.

Question: And the “weight gain, difference to vehicle treated rats” value ([1]; experiment B, 5 mg kg-1 daily, day 6)?
Answer: Its value is -23.7 g.

Question: And the “food intake compared with vehicle” value ([1]; experiment B, 1 and 5 mg kg-1 daily, first day of treatment)?
Answer: Its value is “No significant reductions”.

Question: What about the “differences in food intake” value ([1]; experiment B, 1 and 5 mg kg-1 daily, second day of treatment) of the same molecule?
Answer: The value was “not statistically significant”.

Question: What about the “food intake, difference between the 1 mg kg-1 and 5 mg kg-1 doses” value ([1]; experiment B, daily treatment, day 3) of the same molecule?
Answer: Its value is -17.6 g.

Question: And the “weight gain, difference 5 mg kg-1 versus 1 mg kg-1” value ([1]; experiment B, daily treatment, day 4)?
Answer: The value was -12.0 g.

Question: What about the “food intake, difference compared with vehicle treated rats” value ([1]; experiment C, 10 mg kg-1 single dose, 3 h) of the same molecule?
Answer: The value was -20.0 g.

Question: What about the “food intake, difference compared with vehicle treated rats” value ([1]; experiment C, 10 mg kg-1 single dose, 5 h) of the same molecule?
Answer: The value was -22.8 g.

Question: What about the “food intake, difference compared with vehicle treated rats” value ([1]; experiment C, 10 mg kg-1 single dose, 18 h) of the same molecule?
Answer: The value was -42.0 g.

Question: And the “food intake, difference compared with vehicle treated rats” value ([1]; experiment C, 10 mg kg-1 single dose, […])?
Answer: Its value is -14.3 g.

Question: What about the “food intake, difference compared with vehicle treated rats” value ([1]; experiment C, 20 mg kg-1 single dose, 3 h) of the same molecule?
Answer: Its value is -21.3 g.

Question: What about the “food intake, difference compared with vehicle treated rats” value ([1]; experiment C, 20 mg kg-1 single dose, 5 h) of the same molecule?
Answer: Its value is -30.1 g.

Question: And the “food intake, difference compared with vehicle treated rats” value ([1]; experiment C, 20 mg kg-1 single dose, 18 h)?
Answer: The value was -60.6 g.

Question: What about the “food intake, difference compared with vehicle treated rats” value ([1]; experiment C, 20 mg kg-1 single dose, […]) of the same molecule?
Answer: The value was -15.0 g.

Question: And the “weight gain for several days after the experiment” value ([1]; experiment C, single administration (Compound 1 5 mg kg-1; Compound 3 10, 20 mg kg-1))?
Answer: The value was “significantly reduced”.

Question: What about the “daily food intake after treatment relative to vehicle treated rats” value ([1]; experiment C, single administration (Compound 1 5 mg kg-1; Compound 3 10, 20 mg kg-1), days after) of the same molecule?
Answer: The value was “reduced”.

Question: And the “weight gain, difference between 10 mg kg-1 and 20 mg kg-1 treatment groups” value ([1]; experiment C, single dose, day 5)?
Answer: Its value is -12.3 g.

Question: And the “mean number of vomiting episodes±SEM” value (adult male ferrets; 5 mg kg-1 I.P. 15 min before M6G)?
Answer: Its value is 2.0±0.6.

Question: And the “mean number of vomiting episodes±SEM” value (adult male ferrets; 10 mg kg-1 I.P. 15 min before M6G)?
Answer: Its value is 2.0±0.4.

Question: And the “mean number of vomiting episodes±SEM” value (adult male ferrets; 20 mg kg-1 I.P. 15 min before M6G)?
Answer: The value was 2.7±0.6.

Question: And the “effect on number of vomiting episodes induced by M6G compared with vehicle” value (adult male ferrets; Compound 3 5, 10, 20 mg kg-1, Compound 1 5 mg kg-1)?
Answer: The value was “did not significantly increase”.

Question: And the “food intake over vehicle across all diet groups” value (Rats)?
Answer: Its value is “significantly suppressed food intake”.

Question: And the “hypothermic effect of CP55,940” value (CB1 receptor; 5 mg kg-1 pre-treatment 45 min before CP55,940 0.3 mg kg-1, compared with vehicle)?
Answer: The value was “completely blocked”.

Question: What about the “blood brain barrier passage” value (CB1 receptor; inferred from block of centrally mediated hypothermia, within a short period after administration) of the same molecule?
Answer: The value was “crosses the blood brain barrier”.

Source: US8293211B2, “CB1 receptor antagonists and uses thereof” (MAKScientific, LLC, priority 2007, dated 2012)
